Assay results from patent publication US20140343000A1 (priority 2011, published 2014).
Structures can show the parent of a compound that is named as a salt.

The compounds below were run on recombinant NL4-3 virus (Renilla luciferase in nef, Gag P373S; NLRluc) in MT-2 cells (assay: whole plant or invertebrate). Conditions: Renilla, NL43.
Type: cell-based, HIV
Method in brief: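 Virus from 293T transfection, titered in MT-2 by luciferase. MT-2 (RPMI, 10% HI-FBS) infected ± inhibitor serial dilutions, 4-5 d. Readout: Dual Luciferase premix (lysis:reagent:Stop & Glo 2:1:1), immediate luminescence.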

Q: Which EC50 does the source give for C=C(C)[C@@H]1CC[C@]2(N3CC3)CC[C@]3(C)[C@H](CC[C@@H]4[C@@]5(C)CC=C(c6ccc(C(=O)O)cc6)C(C)(C)[C@@H]5CC[C@]43C)[C@@H]12 [Example 173, 4-((1R,3aS,5aR,5bR,7aR,11aS,11bR,13bR)-3a-(aziridin-1-yl)-5a,5b,8,8,11a-pentamethyl-1-(prop-1-en-2-yl)-2,3,3a,4,5,5a,5b,6,7,7a,8,11,11a,11b,12,13,13a,13b-octadecahydro-1H-cyclopenta[a]chrysen-9-yl)benzoic acid] here?
A: < 100 nM

Same assay, conditions: Renilla, NL43, luciferase activity in cells infected for 4-5 days with NLRluc recombinants, serial dilutions of inhibitor; class symbols (key in Table 1); read-out: EC50

Q: C=C(C)[C@@H]1CC[C@]2(N(CCN3CCS(=O)(=O)CC3)C(C)=O)CC[C@]3(C)[C@H](CC[C@@H]4[C@@]5(C)CC=C(c6ccc(C(=O)O)cc6)C(C)(C)[C@@H]5CC[C@]43C)[C@@H]12 [Example 178, 4-((1R,3aS,5aR,5bR,7aR,11aS,11bR,13aR,13bR)-3a-(acetyl(2-(1,1-dioxido-4-thiomorpholinyl)ethyl)amino)-1-isopropenyl-5a,5b,8,8,11a-pentamethyl-2,3,3a,4,5,5a,5b,6,7,7a,8,11,11a,11b,12,13,13a,13b-octadecahydro-1H-cyclopenta[a]chrysen-9-yl)benzoic acid] was tested. Which EC50 did it give?
A: < 100 nM

Q: Which EC50 does the source give for C=C(C)[C@@H]1CC[C@]2(NCCF)CC[C@]3(C)[C@H](CC[C@@H]4[C@@]5(C)CC=C(c6ccc(C(=O)O)cc6)C(C)(C)[C@@H]5CC[C@]43C)[C@@H]12 [Example 179, 4-((1R,3aS,5aR,5bR,7aR,11aS,11bR,13aR,13bR)-3a-((2-fluoroethyl)amino)-5a,5b,8,8,11a-pentamethyl-1-(prop-1-en-2-yl)-2,3,3a,4,5,5a,5b,6,7,7a,8,11,11a,11b,12,13,13a,13b-octadecahydro-1H-cyclopenta[a]chrysen-9-yl)benzoic acid] here?
A: < 100 nM

Q: C=C(C)[C@@H]1CC[C@]2(NCC)CC[C@]3(C)[C@H](CC[C@@H]4[C@@]5(C)CC=C(c6ccc(C(=O)O)cc6)C(C)(C)[C@@H]5CC[C@]43C)[C@@H]12 [Example 180, 4-((1R,3aS,5aR,5bR,7aR,11aS,11bR,13aR,13bR)-3a-(ethylamino)-5a,5b,8,8,11a-pentamethyl-1-(prop-1-en-2-yl)-2,3,3a,4,5,5a,5b,6,7,7a,8,11,11a,11b,12,13,13a,13b-octadecahydro-1H-cyclopenta[a]chrysen-9-yl)benzoic acid] was tested. Which EC50 did it give?
A: < 100 nM

Q: C=C(C)[C@@H]1CC[C@]2(NCC(C)C)CC[C@]3(C)[C@H](CC[C@@H]4[C@@]5(C)CC=C(c6ccc(C(=O)O)cc6)C(C)(C)[C@@H]5CC[C@]43C)[C@@H]12 [Example 181, 4-((1R,3aS,5aR,5bR,7aR,11aS,11bR,13aR,13bR)-3a-(isobutylamino)-5a,5b,8,8,11a-pentamethyl-1-(prop-1-en-2-yl)-2,3,3a,4,5,5a,5b,6,7,7a,8,11,11a,11b,12,13,13a,13b-octadecahydro-1H-cyclopenta[a]chrysen-9-yl)benzoic acid] was tested. Which EC50 did it give?
A: < 100 nM

Q: How did the EC50 turn out when C=C(C)[C@@H]1CC[C@]2(NCCC(F)(F)F)CC[C@]3(C)[C@H](CC[C@@H]4[C@@]5(C)CC=C(c6ccc(C(=O)O)cc6)C(C)(C)[C@@H]5CC[C@]43C)[C@@H]12 [Example 182, 4-((1R,3aS,5aR,5bR,7aR,11aS,11bR,13aR,13bR)-5a,5b,8,8,11a-pentamethyl-1-(prop-1-en-2-yl)-3a-((3,3,3-trifluoropropyl)amino)-2,3,3a,4,5,5a,5b,6,7,7a,8,11,11a,11b,12,13,13a,13b-octadecahydro-1H-cyclopenta[a]chrysen-9-yl)benzoic acid] was run?
A: > 100 nM

Q: Which EC50 does the source give for C=C(C)[C@@H]1CC[C@]2(Nc3nc(C)c(C)s3)CC[C@]3(C)[C@H](CC[C@@H]4[C@@]5(C)CC=C(c6ccc(C(=O)O)cc6)C(C)(C)[C@@H]5CC[C@]43C)[C@@H]12 [Example 183, 4-((1R,3aS,5aR,5bR,7aR,11aS,11bR,13aR,13bR)-3a-(4,5-dimethylthiazol-2-ylamino)-5a,5b,8,8,11a-pentamethyl-1-(prop-1-en-2-yl)-2,3,3a,4,5,5a,5b,6,7,7a,8,11,11a,11b,12,13,13a,13b-octadecahydro-1H-cyclopenta[a]chrysen-9-yl)benzoic acid] here?
A: < 100 nM

Same assay, conditions: Renilla, NL43, luciferase activity in cells infected for 4-5 days with NLRluc recombinants, serial dilutions of inhibitor; numeric values; read-out: EC50

Q: How did the EC50 turn out when C=C(C)[C@@H]1CC[C@]2(NCC3CCCN(C(=O)OC(C)(C)C)C3)CC[C@]3(C)[C@H](CC[C@@H]4[C@@]5(C)CC=C(c6ccc(C(=O)O)cc6)C(C)(C)[C@@H]5CC[C@]43C)[C@@H]12 (stereo partly drawn) [Example 174, 4-((1R,3aS,5aR,5bR,7aR,11aS,11bR,13aR,13bR)-3a-((1-(tert-butoxycarbonyl)piperidin-3-yl)methylamino)-5a,5b,8,8,11a-pentamethyl-1-(prop-1-en-2-yl)-2,3,3a,4,5,5a,5b,6,7,7a,8,11,11a,11b,12,13,13a,13b-octadecahydro-1H-cyclopenta[a]chrysen-9-yl)benzoic acid] was run?
A: 300 nM

Q: How did the EC50 turn out when C=C(C)[C@@H]1CC[C@]2(NCC3CCCNC3)CC[C@]3(C)[C@H](CC[C@@H]4[C@@]5(C)CC=C(c6ccc(C(=O)O)cc6)C(C)(C)[C@@H]5CC[C@]43C)[C@@H]12 (stereo partly drawn) [Example 175, 4-((1R,3aS,5aR,5bR,7aR,11aS,11bR,13aR,13bR)-5a,5b,8,8,11a-pentamethyl-3a-(piperidin-3-ylmethylamino)-1-(prop-1-en-2-yl)-2,3,3a,4,5,5a,5b,6,7,7a,8,11,11a,11b,12,13,13a,13b-octadecahydro-1H-cyclopenta[a]chrysen-9-yl)benzoic acid] was run?
A: 10 nM

Q: How did the EC50 turn out when C=C(C)[C@@H]1CC[C@]2(N(C)C)CC[C@]3(C)[C@H](CC[C@@H]4[C@@]5(C)CC=C(c6ccc(C(=O)O)cc6)C(C)(C)[C@@H]5CC[C@]43C)[C@@H]12 [Example 177, 4-((1R,3aS,5aR,5bR,7aR,11aS,11bR,13aR,13bR)-3a-(dimethylamino)-5a,5b,8,8,11a-pentamethyl-1-(prop-1-en-2-yl)-2,3,3a,4,5,5a,5b,6,7,7a,8,11,11a,11b,12,13,13a,13b-octadecahydro-1H-cyclopenta[a]chrysen-9-yl)benzoic acid] was run?
A: 9 nM

Q: C=C(C)[C@@H]1CC[C@]2(N(CC(=O)CC)c3nc(CC)cs3)CC[C@]3(C)[C@H](CC[C@@H]4[C@@]5(C)CC=C(c6ccc(C(=O)O)cc6)C(C)(C)[C@@H]5CC[C@]43C)[C@@H]12 [Example 184A, 4-((1R,3aS,5aR,5bR,7aR,11aS,11bR,13aR,13bR)-3a-((4-ethylthiazol-2-yl)(2-oxobutyl)amino)-5a,5b,8,8,11a-pentamethyl-1-(prop-1-en-2-yl)-2,3,3a,4,5,5a,5b,6,7,7a,8,11,11a,11b,12,13,13a,13b-octadecahydro-1H-cyclopenta[a]chrysen-9-yl)benzoic acid] was tested. Which EC50 did it give?
A: 390 nM

Same assay, conditions: luciferase activity in cells infected for 4-5 days with NLRluc recombinants, serial dilutions of inhibitor; class symbols (key in Table 1); read-out: EC50

Q: Which EC50 does the source give for C=C(C)[C@@H]1CC[C@]2(NC)CC[C@]3(C)[C@H](CC[C@@H]4[C@@]5(C)CC=C(c6ccc(C(=O)O)cc6)C(C)(C)[C@@H]5CC[C@]43C)[C@@H]12 [Example 176, 4-((1R,3aS,5aR,5bR,7aR,11aS,11bR,13aR,13bR)-5a,5b,8,8,11a-pentamethyl-3a-(methylamino)-1-(prop-1-en-2-yl)-2,3,3a,4,5,5a,5b,6,7,7a,8,11,11a,11b,12,13,13a,13b-octadecahydro-1H-cyclopenta[a]chrysen-9-yl)benzoic acid, HCl] here?
A: < 100 nM
